Test results reported in PubChem BioAssay AID2060336 (Molecular Pharmacology Branch, DTP, NCI, 2025).
Several values for one entry are separate records, joined by “and”; a condition that tells them apart may be missing. Equal values may be shown once.

Tested on: 958767-090-R-J1-PDC spheroid growth
Experiment: Anticancer human tumor 958767-090-R-J1-PDC patient-derived head and neck squamous carcinoma cell line growth inhibition [IpAb]
Conditions: spheroids with HUVEC and MSC; for viability, T/C: stronger effect = lower value
Outline: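 Combinations with ipatasertib or abemaciclib were tested on tumour spheroids holding HUVEC (25%) and MSC (15%) alongside 60% malignant cells. Top concentration was at or near clinical Cmax (10 microM if undefined), descending in half-log steps.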

[1] = curve of first compound, second compound 0.1 µM
[2] = curve of first compound, second compound 0.316 µM
[3] = curve of first compound, second compound 1 µM
[4] = curve of first compound, second compound 3.16 µM
[5] = curve of first compound, second compound 10 µM
[6] = second compound 0.1 µM, first compound 0.0316 µM
[7] = second compound 0.1 µM, first compound 0.1 µM
[8] = second compound 0.1 µM, first compound 0.316 µM
[9] = second compound 0.1 µM, first compound 1 µM
[10] = second compound 0.1 µM, first compound 3.16 µM
[11] = second compound 0.1 µM, first compound 10 µM
[12] = second compound 0.316 µM, first compound 0.0316 µM
[13] = second compound 0.316 µM, first compound 0.1 µM
[14] = second compound 0.316 µM, first compound 0.316 µM
[15] = second compound 0.316 µM, first compound 1 µM
[16] = second compound 0.316 µM, first compound 3.16 µM
[17] = second compound 0.316 µM, first compound 10 µM
[18] = second compound 1 µM, first compound 0.0316 µM
[19] = second compound 1 µM, first compound 0.1 µM
[20] = second compound 1 µM, first compound 0.316 µM
[21] = second compound 1 µM, first compound 1 µM
[22] = second compound 1 µM, first compound 3.16 µM
[23] = second compound 1 µM, first compound 10 µM
[24] = second compound 3.16 µM, first compound 0.0316 µM
[25] = second compound 3.16 µM, first compound 0.1 µM
[26] = second compound 3.16 µM, first compound 0.316 µM
[27] = second compound 3.16 µM, first compound 1 µM
[28] = second compound 3.16 µM, first compound 3.16 µM
[29] = second compound 3.16 µM, first compound 10 µM
[30] = second compound 10 µM, first compound 0.0316 µM
[31] = second compound 10 µM, first compound 0.1 µM
[32] = second compound 10 µM, first compound 0.316 µM
[33] = second compound 10 µM, first compound 1 µM
[34] = second compound 10 µM, first compound 3.16 µM
[35] = second compound 10 µM, first compound 10 µM
[36] = curve of first compound, second compound 0.01 µM
[37] = curve of first compound, second compound 0.0316 µM
[38] = second compound 0.01 µM, first compound 0.0316 µM
[39] = second compound 0.01 µM, first compound 0.1 µM
[40] = second compound 0.01 µM, first compound 0.316 µM
[41] = second compound 0.01 µM, first compound 1 µM
[42] = second compound 0.01 µM, first compound 3.16 µM
[43] = second compound 0.01 µM, first compound 10 µM
[44] = second compound 0.0316 µM, first compound 0.0316 µM
[45] = second compound 0.0316 µM, first compound 0.1 µM
[46] = second compound 0.0316 µM, first compound 0.316 µM
[47] = second compound 0.0316 µM, first compound 1 µM
[48] = second compound 0.0316 µM, first compound 3.16 µM
[49] = second compound 0.0316 µM, first compound 10 µM
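Further: spheroids exposed to agents for 7 days.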
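Wherever viability, T/C is given: 100% = DMSO vehicle control wells.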

SMILES	IC50 [1] [µM]	IC50 [2] [µM]	IC50 [3] [µM]	viability, T/C [6] [%]	viability, T/C [7] [%]	viability, T/C [8] [%]	viability, T/C [9] [%]	viability, T/C [10] [%]	viability, T/C [11] [%]	viability, T/C [12] [%]	viability, T/C [13] [%]	viability, T/C [14] [%]	viability, T/C [15] [%]	viability, T/C [16] [%]	viability, T/C [17] [%]	viability, T/C [18] [%]	viability, T/C [19] [%]	viability, T/C [20] [%]	viability, T/C [21] [%]	viability, T/C [22] [%]	other results
Cn1nccc1Nc1nccc(-c2ccn(C(CO)c3ccc(Cl)c(F)c3)c(=O)c2)n1 (configuration not stated) + CC(C)NCC(C(=O)N1CCN(c2ncnc3c2C(C)CC3O)CC1)c1ccc(Cl)cc1	0.495	0.137	0.064	86.8	65.5	56.1	43.7	28.2	13.4	66.5	46.4	44.6	32.8	17.7	5.2	54.1	47.9	36.1	23.1	13.2	IC50 [4]: 0.0385 µM; IC50 [5]: < 0.0316 µM; viability, T/C [23]: 3.79%; viability, T/C [24]: 53.6%; viability, T/C [25]: 37.1%; viability, T/C [26]: 27.8%; viability, T/C [27]: 19.4%; viability, T/C [28]: 10.4%; viability, T/C [29]: 4.11%; viability, T/C [30]: 44.7%; viability, T/C [31]: 35%; viability, T/C [32]: 24.1%; viability, T/C [33]: 15.2%; viability, T/C [34]: 8.11%; viability, T/C [35]: 3.09%
C=CC(=O)N1CCN(c2nc(=O)n(-c3c(C)ccnc3C(C)C)c3nc(-c4c(O)cccc4F)c(F)cc23)C(C)C1 (configuration not stated) + CCN1CCN(Cc2ccc(Nc3ncc(F)c(-c4cc(F)c5nc(C)n(C(C)C)c5c4)n3)nc2)CC1	8.02	8.18	9.88	72.2	70.2	75.1	94.2	81.4	43.3	77	55.1	72.5	94.1	75.9	44.9	89.7	82.4	94.6	96.1	87.7	IC50 [36]: 8.41 µM; IC50 [37]: 7.73 µM; viability, T/C [38]: 96.3%; viability, T/C [39]: 84.9%; viability, T/C [40]: 94.4%; viability, T/C [41]: 94.8%; viability, T/C [42]: 81.9%; viability, T/C [43]: 44.3%; viability, T/C [44]: 82.4%; viability, T/C [45]: 84.8%; viability, T/C [46]: 90.7%; viability, T/C [47]: 92.3%; viability, T/C [48]: 83.5%; viability, T/C [49]: 40%; viability, T/C [23]: 49.5%
C=CC(=O)N1CCN(c2nc(=O)n(-c3c(C)ccnc3C(C)C)c3nc(-c4c(O)cccc4F)c(F)cc23)C(C)C1 (configuration not stated) + CC(C)NCC(C(=O)N1CCN(c2ncnc3c2C(C)CC3O)CC1)c1ccc(Cl)cc1	5.02	1.87	0.835	82	86.5	84.4	86.4	59.9	35.2	78.5	71.1	72.3	54.7	44.8	28.7	72.8	57.4	63.3	48.4	34	IC50 [4]: 1.58 µM; IC50 [5]: 1.05 µM; viability, T/C [23]: 19.2%; viability, T/C [24]: 63.9%; viability, T/C [25]: 66.9%; viability, T/C [26]: 53.8%; viability, T/C [27]: 54.5%; viability, T/C [28]: 44.9%; viability, T/C [29]: 16%; viability, T/C [30]: 56.2%; viability, T/C [31]: 54.6%; viability, T/C [32]: 64.9%; viability, T/C [33]: 48.1%; viability, T/C [34]: 29.6%; viability, T/C [35]: 5.8%
C=CCn1c(=O)c2cnc(Nc3ccc(N4CCN(C)CC4)cc3)nc2n1-c1cccc(C(C)(C)O)n1 + CCN1CCN(Cc2ccc(Nc3ncc(F)c(-c4cc(F)c5nc(C)n(C(C)C)c5c4)n3)nc2)CC1	0.338	0.203	0.994	65.6	64	47.1	40.1	31.9	19.7	65	47.1	44.1	46.7	33.2	21.5	77.3	68.2	52.3	55	42.8	IC50 [36]: 0.237 µM; IC50 [37]: 0.25 µM; viability, T/C [38]: 83.8%; viability, T/C [39]: 69.3%; viability, T/C [40]: 43%; viability, T/C [41]: 29%; viability, T/C [42]: 26.7%; viability, T/C [43]: 21.3%; viability, T/C [44]: 79.6%; viability, T/C [45]: 67.3%; viability, T/C [46]: 42.9%; viability, T/C [47]: 34.7%; viability, T/C [48]: 25%; viability, T/C [49]: 21.5%; viability, T/C [23]: 34.3%
CC1(C)CCC(CN2CCN(c3ccc(C(=O)NS(=O)(=O)c4ccc(NCC5CCOCC5)c([N+](=O)[O-])c4)c(Oc4cnc5[nH]ccc5c4)c3)CC2)=C(c2ccc(Cl)cc2)C1 + CCN1CCN(Cc2ccc(Nc3ncc(F)c(-c4cc(F)c5nc(C)n(C(C)C)c5c4)n3)nc2)CC1	4.09	3.89	4.05	63.5	60.7	66.6	50.3	70	7.55	57	50.6	57.2	57.2	79.2	3.5	61.2	61.3	59.8	59.6	70.9	IC50 [36]: 5.78 µM; IC50 [37]: 4.93 µM; viability, T/C [38]: 88.7%; viability, T/C [39]: 90.8%; viability, T/C [40]: 71.5%; viability, T/C [41]: 95.8%; viability, T/C [42]: 121%; viability, T/C [43]: 10.4%; viability, T/C [44]: 75.5%; viability, T/C [45]: 83.4%; viability, T/C [46]: 59.4%; viability, T/C [47]: 70.9%; viability, T/C [48]: 102%; viability, T/C [49]: 5.08%; viability, T/C [23]: 4.55%
Cn1nccc1Nc1nccc(-c2ccn(C(CO)c3ccc(Cl)c(F)c3)c(=O)c2)n1 (configuration not stated)	–	–	–	–	–	–	–	–	–	–	–	–	–	–	–	–	–	–	–	–	viability, T/C (compound 0.0316 µM): 92.1% and 96.5%; viability, T/C (compound 0.1 µM): 72.6% and 82.8%; viability, T/C (compound 0.316 µM): 71.3% and 72.6%; viability, T/C (compound 1 µM): 55.1% and 69.1%; viability, T/C (compound 3.16 µM): 54.4% and 50%; viability, T/C (compound 10 µM): 21.6% and 26.4%; IC50 (curve of compound): 2 µM and 2.91 µM
